What was measured:
BEAS-2B cells = experiment: In vitro oxygen exposure of BEAS-2B cells, YKL-40 expression by real-time RT-PCR; format: cell-based, human; conditions: 95% O2, pretreatment 10 mM 1 hour before oxygen exposure, FIG. 1G
Description: mRNA levels were assessed by real-time reverse transcriptase-polymerase chain reaction, as previously described. […] The sequences for the primers that were used were obtained from Primer Bank online (pga.mgh.harvard.edu/primerbank) Human bronchial epithelial cell line BEAS-2B cells (ATCC, Rockville, Md.) were incubated in complete bronchial epithelial basal medium (Lonza, Walkersville, Md.). They were placed in an airtight modular incubator chamber (Billups-Rothenberg, Del Mar, Calif.), which had been flushed continuously with 95% O2/5% CO2 until the oxygen level inside the chamber reached approximately 95%. The incubator chamber was then placed in a tissue culture incubator at 37° C., the O2 inside the chamber was replaced every 24 hours, and the cells were harvested at the desired time points (24-72 h). The responses in these cells were compared with events in cells incubated in 5% CO2 and air. In select experiments, the cells were incubated with N-acetyl-L-cysteine (Sigma, St. Louis, Mo.), which was added at a dose of 10 mM 1 hour before oxygen exposure, or its vehicle control.

mice exposed to 100% O2 = experiment: Hyperoxic acute lung injury (100% O2 exposure) in mice; format: in vivo
Description: BRP-39^−/− mice were generated and used as previously described (Lee et al., 2009, J Exp Med 206; 1149-1166). The mice were generated on a mixed 129/C57BL/6 background and subsequently bred for more than 10 generations onto a C57BL/6 background. Transgenic mice in which human YKL-40 was tightly and inducibly overexpressed (CC10-rtTA-tTS-YKL-40) in a lung-specific manner were generated with constructs and approaches that have been previously described. (Lee et al., 2009, J Exp Med 206:1149-1166). Mice that lacked BRP-39 and produced YKL-40 only in pulmonary epithelial cells (CC10-rtTA-tTS-YKL-40/BRP-39^−/−) were generated by breeding the CC10-rtTA-tTS-YKL-40 and BRP-39^−/− mice. Mice with caspase-3-null mutations were kindly provided by Dr. Flavell (Dept. of Immunobiology, Yale University School of Medicine). Animal protocols were approved by the Yale University Institutional Animal Care and Use Committee, the guidelines of which were followed for all experiments.
Mice (4-6 wk old) were placed in cages in an airtight Plexiglas chamber (55×40×50 cm), as described previously (Waxman et al., 1998, J Clin Invest 101:1970-1982; Ward et al., 2000, Am J Respir Cell Mol Biol 22:535-542; Wang et al., 2003, J Biol Chem 278:31226-31232). Throughout the experiment, they were given free access to food and water. Oxygen levels were constantly monitored by an oxygen sensor, which was connected to a relay switch incorporated into the oxygen supply circuit. The inside of the chamber was kept at atmospheric pressure, and mice were exposed to a 12-hour light-dark cycle. […]
Bronchoalveolar lavage (BAL; 50 μg) fluids and/or lung lysates were subjected to immunoblot analysis with antibodies against inhibitor of caspase-activated deoxyribonuclease (Chemicon International, Billerica, Mass.), caspase-3 (Cell Signaling Technology, Danvers, Mass.) or β-tubulin (Santa Cruz Biotechnology, Inc.), and the polyclonal rabbit antiserum against BRP-39, as noted above. These samples were fractionated by polyacrylamide gel electrophoresis, transferred to membranes, and evaluated as described previously (Kang et al., 2007, J Exp Med 204:1083-1093).
The levels of BRP-39 in BAL or lung lysates were evaluated by ELISA with an anti-BRP-39 rabbit polyclonal IgG for capture and biotinylated anti-BRP-39, followed by horseradish peroxidase-labeled streptavidin (GE Healthcare, Piscataway, N.J.) for detection. […] The levels of BAL fluid CXCL-1 and CCL-2 were measured by ELISA with commercial kits (R&D Systems, Minneapolis, Minn.), as directed by the manufacturer.
DNA fragmentation and cell death were evaluated with terminal deoxynucleotidyl transferase-mediated dUTP nick end labeling (TUNEL) assays, as previously described. […]

CC(=O)N[C@@H](CS)C(=O)O [N-acetyl-L-cysteine]
effect on hyperoxia inhibition of YKL-40 expression (BEAS-2B cells): abrogated the YKL-40-inhibiting effects of hyperoxia

YKL-40: human homolog of BRP-39, chitinase-like protein; inducibly overexpressed as a transgene in mouse lung epithelium
survival in 100% oxygen (mice exposed to 100% O2; BRP-39−/− mice with epithelial-targeted transgenic YKL-40 (CC10-rtTA-tTS-YKL-40/BRP-39−/−), FIG. 5A): enhanced the survival
augmented hyperoxia-induced responses (permeability, protein leak, tissue and BAL inflammation, KC/CXCL-1 and MCP-1/CCL2, TUNEL-positive cell death, caspase-3 activation) (mice exposed to 100% O2; BRP-39−/− mice with epithelial-targeted transgenic YKL-40, 100% O2, FIGS. 5B-5H): restored to levels comparable to those in WT animals
survival in 100% O2 (mice exposed to 100% O2; CC10-rtTA-tTS-YKL-40 mice on WT genetic background, FIG. 5I): enhanced
alveolar capillary permeability alterations, protein leak, tissue and BAL inflammation, KC/CXCL-1 and MCP-1/CCL2 production, TUNEL-positive cell death, caspase-3 activation (mice exposed to 100% O2; YKL-40 Tg animals on WT genetic background, 100% O2, FIGS. 5B-5H): diminished

From patent US20130156750A1, “Compositions and Methods for Using Human YKL-40 to Treat Acute Lung Injury” (YALE UNIVERSITY, priority 2010, published 2013)
